Numbers after ± are expanded uncertainties.
Test: xn = mol fraction of the nth substance listed
Details: 101 kPa, Liquid; for speed of sound: Sing-around technique in a fixed-path interferometer; for mass density: Vibrating tube method

CCCCCCCC[n+]1ccn(C)c1.[Cl-] [1-methyl-3-octylimidazolium chloride] + O
Details	mass density, 283 K [kg/m3]	mass density, 288 K [kg/m3]	speed of sound, 283 K [m/s]	speed of sound, 288 K [m/s]
x1 = 0.000276	999.831 ± 0.1	999.227 ± 0.1	1451.5 ± 1.2	1469.6 ± 1.2
x1 = 0.000495	999.918 ± 0.1	999.302 ± 0.1	1454.3 ± 1.2	1471.9 ± 1.2
x1 = 0.000781	1000.05 ± 0.1	999.421 ± 0.1	1457 ± 1.2	1474.6 ± 1.2
x1 = 0.00102	1000.16 ± 0.1	999.519 ± 0.1	1460.1 ± 1.2	1477.3 ± 1.2
x1 = 0.0013	1000.3 ± 0.1	999.641 ± 0.1	1463.2 ± 1.2	1480.2 ± 1.2
x1 = 0.001503	1000.38 ± 0.1	999.712 ± 0.1	1465.5 ± 1.2	1482.2 ± 1.2
x1 = 0.001892	1000.56 ± 0.1	999.863 ± 0.1	1469.7 ± 1.2	1486.1 ± 1.2
x1 = 0.002073	1000.64 ± 0.1	999.938 ± 0.1	1471.7 ± 1.2	1488 ± 1.2
x1 = 0.002376	1000.78 ± 0.1	1000.06 ± 0.1	1474.9 ± 1.2	1490.9 ± 1.2
x1 = 0.00261	1000.89 ± 0.1	1000.15 ± 0.1	1477.4 ± 1.2	1493.3 ± 1.2
x1 = 0.002774	1000.96 ± 0.1	1000.21 ± 0.1	1479 ± 1.2	1494.7 ± 1.2
x1 = 0.003111	1001.11 ± 0.1	–	1482.5 ± 1.2	1497.9 ± 1.2
x1 = 0.003716	1001.38 ± 0.1	–	1488.4 ± 1.2	1503.2 ± 1.2
x1 = 0.003899	1001.46 ± 0.1	–	1489.7 ± 1.2	1504.7 ± 1.2
x1 = 0.004079	1001.55 ± 0.1	–	1491.9 ± 1.2	1506.4 ± 1.2
x1 = 0.004181	1001.59 ± 0.1	–	1492.8 ± 1.2	1507.3 ± 1.2
x1 = 0.004462	1001.71 ± 0.1	–	1495.5 ± 1.2	1509.7 ± 1.2
x1 = 0.004601	1001.77 ± 0.1	–	1496.8 ± 1.2	1510.9 ± 1.2
x1 = 0.004981	1001.93 ± 0.1	–	1500.1 ± 1.2	1513.8 ± 1.2
x1 = 0.005198	1002.02 ± 0.1	–	1501.6 ± 1.2	1515.3 ± 1.2
x1 = 0.005607	1002.2 ± 0.1	–	1505.4 ± 1.2	1518.4 ± 1.2
x1 = 0.005782	1002.27 ± 0.1	–	1506.8 ± 1.2	1519.6 ± 1.2

— the NIST ThermoML archive (doi:10.1016/j.jct.2012.11.032)
